Values quoted from earlier work in patent US20050060811A1, “Fabric care article and method for conserving energy” (The Procter & Gamble Company, priority 2000, published 2005).

Conditions: not given

SMILES | solubility in water
ClC=CC[N+]12CN3CN(CN(C3)C1)C2.[Cl-] [Dowicil 200, 1-(3-Chlorallyl)-3,5,7-triaza-1-azoniaadamantane chloride] | freely soluble in water

Same assay, conditions: in water

SMILES | water solubility
[H]/N=C(\N/C(=N/[H])NCCCCCCNC(=N)NC(=N)Nc1ccc(Cl)cc1)Nc1ccc(Cl)cc1 [chlorhexidine digluconate, 1,1′-hexamethylene bis(5-(p-chlorophenyl)biguanide)] | about 70%
OCCc1ccccc1 [2-phenylethanol] | about 2%
O=[N+]([O-])C1(Br)COCOC1 [Bronidox L, 5-bromo-5-nitro-1,3-dioxane] | about 0.46%
OCc1ccccc1 [benzyl alcohol] | about 4%
O=[N+]([O-])C(Br)(CO)CO [Bronopol, 2-bromo-2-nitropropane-1,3-diol] | about 25%
CC(C)(O)C(Cl)(Cl)Cl [chlorobutanol, 1,1,1-Trichloro-2-methylpropan-2-ol] | about 0.8%
[H]/N=C(\N/C(=N/[H])NCCCCCCNC(=N)NC(=N)Nc1ccc(Cl)cc1)Nc1ccc(Cl)cc1 [chlorhexidine diacetate, 1,1′-hexamethylene bis(5-(p-chlorophenyl)biguanide)] | about 1.8%
[Na+].[O-][n+]1ccccc1[S-] [sodium pyrithione] | about 50%
OCCOc1ccccc1 [2-phenoxyethanol] | about 2.67%
CC1(C)C(=O)N(CO)C(=O)N1CO [DMDM hydantoin, 1,3-bis(hydroxymethyl)-5,5-dimethyl-2,4-imidazolidinedione] | more than 50%
